In patent US10627415B2, “Compositions and methods for diagnosing, monitoring, and treating an autoimmune disease” (BOARD OF TRUSTEES OF MICHIGAN STATE UNIVERSITY, priority 2015, dated 2020):

Columns and labels:
Format in all cases: cell-based, human
[1] = system: RBCs; assay: 65Zn2+ binding to RBCs; conditions: 20 nM 65Zn2+ and 20 nM C-peptide
Text: In some embodiments, e.g., those in which RBCs are contacted with C-peptide and Zn^2+, Fe^2+, and/or Cr^3+, in the presence of albumin or other C-peptide binding facilitator, Zn^2+, Fe^2+, and/or Cr^3+ uptake by RBCs can be measured (e.g., as a proxy for C-peptide uptake). Methods for detecting or measuring Zn^2+ uptake by RBCs are known in the art and described in, e.g., Horn et al. (1995) J Physiol 489(1):73-80 (describing the use of radiolabeled Zn^2+).
Additional samples from healthy controls and MS patients were analyzed for C-peptide binding, ATP release (10 healthy control patients, 10 MS patients, and 12 MS patients with glybenclamide), and Zn^2+ binding (11 healthy control patients and 22 MS patients). […] Here, 20 nM ^65Zn^2+ was incubated with the RBCs and 20 nM C-peptide. It is noteworthy that in 32 of these 34 samples, MS ATP release, C-peptide and/or Zn^2+ binding, was higher than the control samples analyzed simultaneously with the MS samples.

[2] = system: RBCs of MS patients; assay: ATP release from RBCs in a constricted environment (luciferin/luciferase chemiluminescence); conditions: RBCs of MS patients incubated with the inhibitor; 7% hematocrit, flow; MS without inhibitor 344.7±46.8 nM, healthy controls 132.1±14.1 nM
Text: In some embodiments, detecting or measuring the amount of C-peptide uptake can be accomplished by measuring ATP release by the RBCs contacted with C-peptide (and, optionally, Zn^2+, Fe^2+, and/or Cr^3+). Methods for measuring ATP release by RBCs are known in the art and described in, e.g., Faris and Spence (2008) Analyst 133(5):678-682; Fischer et al. (2003) Analyst 128(9):1163-1168; Petruzzi et al. (1994) Metabalism 43(4):435-440; Richards et al. (2013) Am J Physiol Regul Integr Comp Physiol 305(11):R1331-1336; and Richards et al. (2014) Am J Physiol Regul Integr Comp Physiol 307(7):R862-868. For example, ATP can be measured using a luciferin-luciferase assay. […] The light emitted from the reaction with ATP can be quantified using a luminometer. […]
Experiments were performed to determine if RBCs from MS patients (n=19) release more ATP than blood from healthy control patients (n=10) or blood from MS patents combined with the ATP release inhibitor, glybenclamide (Gly; n=12) when subjected to a constricted environment. […] The portion of tubing having the polyimide coating removed was positioned over a light-excluding box containing a photomultiplier tube (PMT), such that chemiluminescence generated from the ATP contacting the detection facilitator was detected. […]

[3] = system: RBCs; assay: Effect of C-peptide binding facilitator on C-peptide binding to RBCs (Example 2 protocol); conditions: for C-peptide binding to RBCs, MS: n = 1
Description: Similar studies were performed using serum albumin from other species (human, porcine, chicken); all of these forms deliver C-peptide to RBCs and are useful in the methods described herein.
All samples were handled in an identical manner. Briefly, about 10 mL of blood was drawn from each donor; the RBCs were purified by centrifugation; and the RBCs were suspended in physiological salt solution (PSS). Then RBCs were combined with PSS (containing bovine serum albumin (BSA) as a C-peptide binding facilitator) and C-peptide to generate a mixture having a 7% hematocrit, 20 nM C-peptide, and 75 μM BSA (0.5%). The mixture was allowed to incubate for 2 hours at 37° C. Next, the samples were centrifuged to separate the cells from solution, the solution was diluted 1:50 with double distilled water, and the amount of C-peptide remaining in the solution was determined by ELISA. This provided a value corresponding to the moles of C-peptide bound to the RBCs. […] Whereas blood from the healthy controls bound an average of 1.99±0.32 pmoles C-peptide, blood from MS patients and OND patients bound averages of 3.51±0.59 pmoles of C-peptide and 2.23±0.51 pmoles of C-peptide, respectively. As shown by p values of less than 0.001, the increase in C-peptide binding relative to healthy controls and OND patients is significant.
Experiments were performed to determine the effect of C-peptide binding facilitator concentration on C-peptide binding by RBCs. The protocol of Experiment 2 was repeated, but with increasing BSA concentrations. […] Only a slight increase in C-peptide binding is realized.
Experiments were performed to test various potential C-peptide binding facilitators. The experiments were performed as described in example 2, but the C-peptide binding facilitator, BSA, was replaced with other albumins (porcine serum albumin and ovalbumin) or other proteins (leptin, casein, transferrin, and collagen).

[4] = other protein in place of BSA, n = 3
[5] = other albumin in place of BSA, n = 4

Molecule: [65Zn+2] [^65Zn^2+]
- amount of 65Zn2+ able to bind with the RBCs ([1]; RBCs of MS patients): 3.61±0.22 picomoles
- amount of 65Zn2+ able to bind with the RBCs ([1]; RBCs of healthy controls): 2.26±0.24 picomoles

Molecule: COc1ccc(Cl)cc1C(=O)NCCc1ccc(S(=O)(=O)NC(=O)NC2CCCCC2)cc1 [glybenclamide]
- ATP release [2]: 65.3 ± 11.6 nM

Molecule: bovine serum albumin [BSA]
- C-peptide binding ([3]; [BSA] 0.5%): 2.14 ± 0.22 pmol
- C-peptide binding ([3]; [BSA] 1.0%): 2.19 ± 0.16 pmol
- C-peptide binding ([3]; [BSA] 2.0%): 2.26 ± 0.13 pmol

Molecule: casein
- C-peptide binding to RBCs, MS ([3]; other protein in place of BSA): No binding detected
- C-peptide binding to RBCs, Control [3, 4]: No binding detected

Molecule: collagen
- C-peptide binding to RBCs, MS ([3]; other protein in place of BSA): 0.56 pmol
- C-peptide binding to RBCs, Control [3, 4]: 0.21 ± 0.14 pmol

Molecule: leptin
- C-peptide binding to RBCs, MS ([3]; other protein in place of BSA): 0.97 pmol
- C-peptide binding to RBCs, Control [3, 4]: 0.74 ± 0.11 pmol

Molecule: ovalbumin
- C-peptide binding to RBCs, MS ([3]; other albumin in place of BSA): 0.67 pmol
- C-peptide binding to RBCs, Control [3, 5]: 0.39 ± 0.22 pmol

Molecule: transferrin
- C-peptide binding to RBCs, MS ([3]; other protein in place of BSA): No binding detected
- C-peptide binding to RBCs, Control [3, 4]: No binding detected

B1: porcine serum albumin (protein, UniProt P08835 25-607, looked up)
Albumin: DTYKSEIAHRFKDLGEQYFKGLVLIAFSQHLQQCPYEEHVKLVREVTEFAKTCVADESAENCDKSIHTLFGDKLCAIPSLREHYGDLADCCEKEEPERNECFLQHKNDNPDIPKLKPDPVALCADFQEDEQKFWGKYLYEIARRHPYFYAPELLYYAIIYKDVFSECCQAADKAACLLPKIEHLREKVLTSAAKQRLKCASIQKFGERAFKAWSLARLSQRFPKADFTEISKIVTDLAKVHKECCHGDLLECADDRADLAKYICENQDTISTKLKECCDKPLLEKSHCIAEAKRDELPADLNPLEHDFVEDKEVCKNYKEAKHVFLGTFLYEYSRRHPDYSVSLLLRIAKIYEATLEDCCAKEDPPACYATVFDKFQPLVDEPKNLIKQNCELFEKLGEYGFQNALIVRYTKKVPQVSTPTLVEVARKLGLVGSRCCKRPEEERLSCAEDYLSLVLNRLCVLHEKTPVSEKVTKCCTESLVNRRPCFSALTPDETYKPKEFVEGTFTFHADLCTLPEDEKQIKKQTALVELLKHKPHATEEQLRTVLGNFAAFVQKCCAAPDHEACFAVEGPKFVIEIRGILA
- C-peptide binding to RBCs, MS ([3]; other albumin in place of BSA): 6.33 pmol
- C-peptide binding to RBCs, Control [3, 5]: 4.01 ± 1.01 pmol
